Laboratory results taken from patent publication US20120202856A1, “SUBSTITUTED BENZIMDAZOLE DERIVATIVES USEFUL AS TRPM8 RECEPTOR MODULATORS” (priority 2011, published 2012).
Where “and” joins values, the source holds several entries; their conditions need not be identical. Equal values may be shown once. Where a name gives a salt, the structure may show the parent alone.

Target: T1, canine TRPM8 (Canis lupus familiaris, UniProt Q1A7N1)
T1 construct: expressed in transfected cells
Assay: In Vitro Canine TRPM8 Functional Assay (intracellular Ca2+ fluorescence, icilin activation, HEK293 cells)
Format: cell-based
Conditions: for IC50: HEK293 cells expressing canine TRPM8, icilin activation, individually measured values (batches/salt forms), read-out: IC50 (nM), in vitro TRP M8 Activity; for inhibition at 0.2 µM: HEK293, 0.2 μM test compound, individually measured values, read-out: % Inh (%) @0.2 μM, in vitro TRP M8 Activity
Method: The changes in fluorescent signal were monitored by a fluorescence plate reader, either a FLIPR™ (Molecular Devices) or FDSS (Hamamatsu). […] Cells were maintained in 5% CO2 at 37° C. At 24 hr prior to assay, cells were seeded in black wall, clear-base poly-D-lysine coated 384-well plates (BD Biosciences, NJ, USA) at a density of 5,000 cells per well in culture medium and grown overnight in 5% CO2 at 37° C. On assay day, growth media was removed, and cells were loaded with Calcium 3 Dye (Molecular Devices) for 35 min at 37° C., under 5% CO2 and then incubated for 25 min at room temperature and atmosphere. Subsequently, cells were tested for agonist-induced increases in intracellular Ca^2+ levels using FLIPR™ or FDSS. […] Maximal fluorescence intensity (FI) achieved upon addition of icilin was exported from the FLIPR™ or FDSS software and further analyzed using GraphPad Prism 3.02 (Graph Pad Software Inc., CA, U.S.A.). Basal FI was subtracted prior to normalizing data to percent of maximal response. Curves were generated using the average of quadruplicate wells for each data point using nonlinear regression of either sigmoidal dose response or sigmoidal dose response (variable slope). Finally, IC50 values were calculated with the best-fit curve determined by GraphPad Prism

T1 sequence (Q1A7N1 1-1104): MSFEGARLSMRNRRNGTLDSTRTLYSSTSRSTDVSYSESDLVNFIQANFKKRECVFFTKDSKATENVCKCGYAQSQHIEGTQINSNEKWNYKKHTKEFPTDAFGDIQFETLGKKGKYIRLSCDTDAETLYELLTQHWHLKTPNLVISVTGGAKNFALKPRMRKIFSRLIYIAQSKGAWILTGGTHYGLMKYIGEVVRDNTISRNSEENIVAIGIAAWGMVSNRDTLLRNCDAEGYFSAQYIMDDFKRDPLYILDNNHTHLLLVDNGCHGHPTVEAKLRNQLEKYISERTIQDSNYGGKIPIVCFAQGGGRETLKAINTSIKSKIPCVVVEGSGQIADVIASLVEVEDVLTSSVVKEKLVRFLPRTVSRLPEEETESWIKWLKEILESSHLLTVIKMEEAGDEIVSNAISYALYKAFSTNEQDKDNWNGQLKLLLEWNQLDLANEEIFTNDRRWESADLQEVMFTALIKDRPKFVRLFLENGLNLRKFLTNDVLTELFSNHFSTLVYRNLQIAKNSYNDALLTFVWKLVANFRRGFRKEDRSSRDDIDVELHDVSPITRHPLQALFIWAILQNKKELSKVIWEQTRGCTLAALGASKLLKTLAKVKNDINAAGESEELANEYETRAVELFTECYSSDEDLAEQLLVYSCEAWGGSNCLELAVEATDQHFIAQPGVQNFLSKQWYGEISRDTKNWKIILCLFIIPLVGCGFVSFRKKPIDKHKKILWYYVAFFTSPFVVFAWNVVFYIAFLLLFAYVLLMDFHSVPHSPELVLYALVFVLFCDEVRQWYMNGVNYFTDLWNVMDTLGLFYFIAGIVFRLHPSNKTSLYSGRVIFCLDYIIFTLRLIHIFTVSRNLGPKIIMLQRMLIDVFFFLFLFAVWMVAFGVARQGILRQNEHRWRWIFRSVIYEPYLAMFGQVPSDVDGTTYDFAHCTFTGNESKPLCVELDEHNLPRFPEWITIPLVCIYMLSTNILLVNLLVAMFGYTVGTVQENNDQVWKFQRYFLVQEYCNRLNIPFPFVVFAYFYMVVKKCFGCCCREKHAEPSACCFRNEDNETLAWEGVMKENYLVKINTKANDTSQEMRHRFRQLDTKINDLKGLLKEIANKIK

SMILES	IC50	inhibition at 0.2 µM
CC(C)c1cc(-c2nc3cc(-c4ccccc4)ccc3[nH]2)on1 [Compound 1, 2-(3-Isopropylisoxazol-5-yl)-5-phenyl-1H-benzimidazole sodium salt]	111 nM	
COc1ccccc1-c1ccc2[nH]c(-c3cc(C(C)C)no3)nc2c1 [Compound 2, 2-(3-Isopropylisoxazol-5-yl)-5-(2-methoxyphenyl)-1H-benzimidazole sodium salt]	16 nM	
CC(C)c1cc(-c2nc3cc(-c4ccccc4OC(F)(F)F)ccc3[nH]2)on1 [Compound 5, 2-(3-Isopropylisoxazol-5-yl)-5-(2-trifluoromethoxyphenyl)-1H-benzimidazole sodium salt]	22.5 nM	
CCOc1ccccc1-c1ccc2[nH]c(-c3cc(C(C)C)no3)nc2c1 [Compound 6, 2-(3-Isopropylisoxazol-5-yl)-5-(2-ethoxyphenyl)-1H-benzimidazole sodium salt]	64.4 nM	
CC(C)c1cc(-c2nc3cc(-c4cccc(C(F)(F)F)c4)ccc3[nH]2)on1 [Compound 7, 2-(3-Isopropylisoxazol-5-yl)-5-(3-trifluoromethylphenyl)-1H-benzimidazole sodium salt]		10%
COc1ccccc1-c1ccc2[nH]c(-c3cc(C(C)(C)C)no3)nc2c1 [Compound 8, 2-(3-tert-Butylisoxazol-5-yl)-5-(2-methoxyphenyl)-1H-benzimidazole sodium salt]	11.1 nM and 8 nM	
Cn1nc(C(C)(C)C)cc1-c1nc2cc(-c3ccccc3OC(F)(F)F)ccc2[nH]1 [Compound 14, 2-(5-tert-Butyl-2-methyl-2H-pyrazol-3-yl)-5-(2-trifluoromethoxyphenyl)-1H-benzimidazole sodium salt]	44 nM	
COc1ccccc1-c1ccc2[nH]c(-c3cc(C4CC4)no3)nc2c1 [Compound 15, 2-(3-cyclopropylisoxazol-5-yl)-5-(2-methoxyphenyl)-1H-benzimidazole sodium salt]	70 nM	
FC(F)(F)c1ccccc1-c1ccc2[nH]c(-c3cc(C4CC4)no3)nc2c1 [Compound 16, 2-(3-cyclopropylisoxazol-5-yl)-5-(2-trifluoromethylphenyl)-1H-benzimidazole sodium salt]	58 nM	
FC(F)(F)Oc1ccccc1-c1ccc2[nH]c(-c3cc(C4CC4)no3)nc2c1 [Compound 17, 2-(3-cyclopropylisoxazol-5-yl)-5-(2-trifluoromethoxyphenyl)-1H-benzimidazole sodium salt]	52 nM	
CCCc1cc(-c2nc3ccc(-c4ccccc4C(F)(F)F)cc3[nH]2)on1 [Compound 18, 2-(3-Propylisoxazol-5-yl)-6-(2-trifluoromethylphenyl)-1H-benzimidazole hydrochloride]	27 nM	
CCCc1cc(-c2nc3ccc(-c4ccccc4OC(F)(F)F)cc3[nH]2)on1 [Compound 19, 2-(3-Propylisoxazol-5-yl)-6-(2-trifluoromethoxyphenyl)-1H-benzimidazole hydrochloride]	18 nM	
CC(C)(C)Cc1cc(-c2nc3ccc(-c4ccccc4C(F)(F)F)cc3[nH]2)on1 [Compound 20, 2-[3-(2,2-Dimethylpropyl)isoxazol-5-yl]-6-(2-trifluoromethylphenyl)-1H-benzimidazole hydrochloride]	19 nM	
CC(C)(C)Cc1cc(-c2nc3ccc(-c4ccccc4OC(F)(F)F)cc3[nH]2)on1 [Compound 21, 2-[3-(2,2-Dimethylpropyl)-isoxazol-5-yl]-6-(2-trifluoromethoxyphenyl)-1H-benzimidazole hydrochloride]	29 nM	
CC(C)Cc1cc(-c2nc3cc(-c4ccccc4C(F)(F)F)ccc3[nH]2)on1 [Compound 22, 2-(3-Isobutylisoxazol-5-yl)-5-(2-trifluoromethylphenyl)-1H-benzimidazole hydrochloride]	32 nM	
CC(C)Cc1cc(-c2nc3ccc(-c4ccccc4OC(F)(F)F)cc3[nH]2)on1 [Compound 23, 2-(3-Isobutylisoxazol-5-yl)-6-(2-trifluoromethoxyphenyl)-1H-benzimidazole hydrochloride]	30 nM	
FC(F)(F)c1ccccc1-c1ccc2nc(-c3cc(C4CCCCC4)no3)[nH]c2c1 [Compound 24, 2-(3-Cyclohexylisoxazol-5-yl)-6-(2-trifluoromethylphenyl)-1H-benzimidazole hydrochloride]		63%
FC(F)(F)Oc1ccccc1-c1ccc2nc(-c3cc(C4CCCCC4)no3)[nH]c2c1 [Compound 25, 2-(3-Cyclohexylisoxazol-5-yl)-6-(2-trifluoromethoxyphenyl)-1H-benzimidazole hydrochloride]		63%
CCC(CC)c1cc(-c2nc3ccc(-c4ccccc4C(F)(F)F)cc3[nH]2)on1 [Compound 26, 2-[3-(1-Ethylpropyl)-isoxazol-5-yl]-6-(2-trifluoromethylphenyl)-1H-benzimidazole hydrochloride]	39 nM	
CCC(CC)c1cc(-c2nc3ccc(-c4ccccc4OC(F)(F)F)cc3[nH]2)on1 [Compound 27, 2-[3-(1-Ethylpropyl)-isoxazol-5-yl]-6-(2-trifluoromethoxyphenyl)-1H-benzimidazole hydrochloride]	46 nM	
Cn1nc2c(c1-c1nc3cc(-c4ccccc4C(F)(F)F)ccc3[nH]1)CCCC2(C)C [Compound 30, 2,7,7-Trimethyl-3-[5-(2-trifluoromethylphenyl)-1H-benzimidazol-2-yl]-4,5,6,7-tetrahydro-2H-indazole sodium salt]	36 nM	
Cn1nc2c(c1-c1nc3cc(-c4ccccc4OC(F)(F)F)ccc3[nH]1)CCCC2(C)C [Compound 31, 2,7,7-Trimethyl-3-[5-(2-trifluoromethoxyphenyl)-1H-benzimidazol-2-yl]-4,5,6,7-tetrahydro-2H-indazole sodium salt]	84 nM	
Cn1nc2c(c1-c1nc3cc(-c4ccccc4Cl)ccc3[nH]1)CCCC2(C)C [Compound 32, 3-[5-(2-Chlorophenyl)-1H-benzimidazol-2-yl]-2,7,7-trimethyl-4,5,6,7-tetrahydro-2H-indazole sodium salt]	21 nM	

The next lines start with the values.

IC50	inhibition at 0.2 µM	SMILES
145 nM		FC(F)(F)c1ccccc1-c1ccc2[nH]c(-c3cc(Cl)no3)nc2c1 [Compound 33, 2-(3-Chloroisoxazol-5-yl)-5-(2-trifluoromethylphenyl)-1H-benzimidazole sodium salt]
72.9 nM		FC(F)(F)Oc1ccccc1-c1ccc2[nH]c(-c3cc(Cl)no3)nc2c1 [Compound 34, 2-(3-Chloroisoxazol-5-yl)-5-(2-trifluoromethoxyphenyl)-1H-benzimidazole sodium salt]
55.9 nM		Cn1nc(C2CCC2)cc1-c1nc2cc(-c3ccccc3C(F)(F)F)ccc2[nH]1 [Compound 37, 2-(5-Cyclobutyl-2-methyl-2H-pyrazol-3-yl)-5-(2-trifluoromethyl-phenyl)-1H-benzimidazole sodium salt]
55.8 nM		Cn1nc(C2CCC2)cc1-c1nc2cc(-c3ccccc3OC(F)(F)F)ccc2[nH]1 [Compound 38, 2-(5-Cyclobutyl-2-methyl-2H-pyrazol-3-yl)-5-(2-trifluoromethoxy-phenyl)-1H-benzimidazole sodium salt]
20 nM		Cn1nc(C2CCC2)cc1-c1nc2cc(-c3ccccc3Cl)ccc2[nH]1 [Compound 39, 2-(5-Cyclobutyl-2-methyl-2H-pyrazol-3-yl)-5-(2-chlorophenyl)-1H-benzimidazole sodium salt]
81.5 nM		Cn1nc(C(F)(F)F)cc1-c1nc2cc(-c3ccccc3C(F)(F)F)ccc2[nH]1 [Compound 40, 2-(5-Trifluoromethyl-2-methyl-2H-pyrazol-3-yl)-5-(2-trifluoromethylphenyl)-1H-benzimidazole sodium salt]
133 nM		Cn1nc(C(F)(F)F)cc1-c1nc2cc(-c3ccccc3OC(F)(F)F)ccc2[nH]1 [Compound 41, 2-(5-Trifluoromethyl-2-methyl-2H-pyrazol-3-yl)-5-(2-trifluoromethoxyphenyl)-1H-benzimidazole sodium salt]
151 nM		FC(F)(F)c1ccccc1-c1ccc2[nH]c(-c3cc(Br)no3)nc2c1 [Compound 42, 2-(3-Bromoisoxazol-5-yl)-5-(2-trifluoromethylphenyl)-1H-benzimidazole sodium salt]
94.6 nM		FC(F)(F)Oc1ccccc1-c1ccc2[nH]c(-c3cc(Br)no3)nc2c1 [Compound 43, 2-(3-Bromoisoxazol-5-yl)-5-(2-trifluoromethoxyphenyl)-1H-benzimidazole sodium salt]
51.2 nM		CCn1nc(C(C)(C)C)cc1-c1nc2cc(-c3ccccc3OC(F)(F)F)ccc2[nH]1 [Compound 45, 2-(5-tert-butyl-2-ethyl-2H-pyrazol-3-yl)-5-(2-trifluoromethoxyphenyl)-1H-benzimidazole sodium salt]
21 nM		CC(C)n1nc(C(C)(C)C)cc1-c1nc2cc(-c3ccccc3C(F)(F)F)ccc2[nH]1 [Compound 46, 2-(5-tert-Butyl-2-isopropyl-2H-pyrazol-3-yl)-5-(2-trifluoromethylphenyl)-1H-benzimidazole sodium salt]
49.6 nM		CC(C)n1nc(C(C)(C)C)cc1-c1nc2cc(-c3ccccc3OC(F)(F)F)ccc2[nH]1 [Compound 47, 2-(5-tert-Butyl-2-isopropyl-2H-pyrazol-3-yl)-5-(2-trifluoromethoxyphenyl)-1H-benzimidazole sodium salt]
